Measured values: patent US5521155A, “Amides of teicoplanin compounds” (Gruppo Lepetit S.p.A, priority 1985, dated 1996)
≈ marks a conversion by molar mass, not a printed value.

Assays:
S. pyogenes C 203 = assay: In vitro antibacterial activity, standard agar-dilution test (MIC); assay type: cell-based; conditions: inoculum about 10^4 CFU/ml, 18-24 h at 37° C.
Description: (§1) The culture medium ISOSENSITEST BROTH (Oxoid) and the colture medium TODD-[…] BROTH (Difco) are used for growing staphylococci and streptococci, respectively. Broth cultures are diluted so that the final inoculum is about 10^4 colony forming units/ml (CFU/ml).

S. aureus ATCC 6538 = assay: as above; assay type: cell-based; conditions: inoculum about 10^4 CFU/ml, 18-24 h at 37° C.
Description: as §1

S. pneumoniae UC 41 = assay: as above; assay type: cell-based; conditions: inoculum about 10^4 CFU/ml, 18-24 h at 37° C.
Description: as §1

S. faecalis ATCC 7080 = assay: as above; assay type: cell-based; conditions: inoculum about 10^4 CFU/ml, 18-24 h at 37° C.
Description: as §1

[1] = tested on: Pseudomonas aeruginosa ATCC 10145; assay: as above; assay type: cell-based; conditions: inoculum about 10^4 CFU/ml, 18-24 h at 37° C.
Description: as §1

[2] = tested on: Proteus vulgaris X 19H ATCC 881; assay: as above; assay type: cell-based; conditions: inoculum about 10^4 CFU/ml, 18-24 h at 37° C.
Description: as §1

[3] = tested on: S. epidermidis ATCC 12228; assay: as above; assay type: cell-based; conditions: inoculum about 10^4 CFU/ml, 18-24 h at 37° C.
Description: as §1

E. coli SKF 12140 = assay: as above; assay type: cell-based; conditions: inoculum about 10^4 CFU/ml, 18-24 h at 37° C.
Description: as §1

S. aureus Tour = assay: as above; assay type: cell-based; conditions: inoculum about 10^4 CFU/ml, 18-24 h at 37° C.
Description: as §1

S. pyogenes L 49 = assay: In vivo test in mice experimentally infected with S. pyogenes L 49 (ED50); conditions: mice infected with S. pyogenes L 49; for ED50, route of administration os.: oral
[4] = Isoelectric point (pI) by isoelectrofocusing with bioautography detection; assay type: physicochemical; conditions: IEF technique, polyacrylamide gel
Description: The isoelectrofocusing (IEF) technique coupled with bioautography detection has been used for the determination of the pI of representative compounds of the invention using the following materials: AMPHOLINE carrier ampholytes (40% w/v) were purchased from LKB Produketer AB, Bromma, Sweden. Acrylamide, N,N'-methylenbisacrylamide (BIS), N,N,N',N'-tetramethylethylenediamine (TEMED) and ammonium persulfate were from Bio Rad Laboratorie, Richmond, Calif., USA. Glycerol and Antibiotic agar N. 1 (Grove and Randall medium N. 1) were from E. Merck Darmstadt FRG. GEL FIX polyester sheets were purchased from Serva Feinbiochemica Heidelberg. Phenolindo (2,6-dichlorophenol) came from BDH Chemicals Ltd. Poole, England.
IEF was made on gel slab using a LKB MULITPHOR 2117 cell and a Bio-Rad Power Supply Model 1420A. Slabs of 24.5×11.5 cm and 1 mm thickness were prepared on a sheet of GEL FIX. Polyacrylamide gels with a concentration of 8% T and with a cross-linkage of 4% C (30% T stock solution was prepared by dissolving 28.8 g of acrylamide and 1.2 g of bis-acrylamide in 100 ml distilled water), glycerol, 3.5% v/v, 2% AMPHOLINE, 0.05% ammonium persulphate as catalyst and 0.05% TEMED as accelerator. The carrier ampholite composition for 35 ml gelling solution was as follows:
The electrode solutions, as recommended by LKB for the respective pH range, were:
The gel was cooled to 4° C. with the aid of a LKB 2209 refrigerated constant temperature circulator. After prefocusing for 30 min. at 5 W, the samples (20 μl containing 0.2 to 2.5 μg of antibiotic) were loaded into the slot at the cathodic side. Electrofocusing was performed using 10 W constant power and was completed after 3-31/2 hours with a final potential of 1400 V.
The pH values were determined by dividing a portion of the gel into 1 cm sections, and eluting the individual pieces at room temperature with 1 ml of 10 mM KCl prior to pH readings.
The isoelectric point of each antibiotic was determined by interpolation on a curve obtained by plotting pH values versus the distance from the anode.
Polyacrylamide gel was placed on a 3 mm layer of agar medium N. 1 inoculated with 1% of Bacillus subtilis ATCC 6633 spore (0.5 OD at 600 nm). After 10 min the gel was removed and the plate was incubated overnight at 37° C. and examined for inhibition zones. The contrast between the area of lysis and that of bacterial growth was enhanced by use of Phenolindo(2,6-dichlorophenol) 1% w/v (oxidation-reduction indicator).

Acid-base titration (pK) = assay type: physicochemical; conditions: for pK1 / pK2: acid-base titration in METHYLCELLOSOLVE/H2O 4:1 (v/v), 0.01N KOH, salt form per Table IV
Description: The following table (Table IV) reports the acid-base titration data of some representative compounds of the invention. The assays were carried out in METHYLCELLOSOLVE/H2 O, 4:1(v/v). A sample is dissolved in METHYLCELLOSOLVE/H2 O, 4:1(v/v) (10 umole in about 20 ml) and then 0.01N HCl (2 ml) is added and the mixture is titrated with 0.01N KOH in the same solvent mixture.

| Structure (SMILES) | MIC S. pyogenes C 203 (S. pyogenes C 203) | MIC S. aureus ATCC 6538 (S. aureus ATCC 6538) | MIC S. pneumoniae UC 41 (S. pneumoniae UC 41) | MIC S. faecalis ATCC 7080 (S. faecalis ATCC 7080) | MIC Pseudomonas aeruginosa ATCC 10145 [1] | MIC Proteus vulgaris X 19H ATCC 881 [2] | MIC S. epidermidis ATCC 12228 [3] | MIC E. coli SKF 12140 (E. coli SKF 12140) | MIC S. aureus Tour (S. aureus Tour) | ED50, route of administration os. (S. pyogenes L 49) | ED50, route of administration s.c (S. pyogenes L 49) | Isoelectric point (pI) [4] | pK1 (Acid-base titration (pK)) | pK2 (Acid-base titration (pK)) | pK3 (value between brackets) (Acid-base titration (pK); between brackets: due to titration of the carboxylic function of the salifying acid) |
| --- | --- | --- | --- | --- | --- | --- | --- | --- | --- | --- | --- | --- | --- | --- | --- |
| CCOC(=O)CNC(=O)C1NC(=O)C2NC(=O)C(NC(=O)C3NC(=O)C4NC(=O)C(Cc5ccc(c(Cl)c5)Oc5cc3cc(c5O)Oc3ccc(cc3Cl)C2OC2OC(CO)C(O)C(O)C2NC(C)=O)NC(=O)C(N)c2ccc(O)c(c2)Oc2cc(O)cc4c2)c2ccc(O)c(c2)-c2c(O)cc(O)cc21 (centres unmarked) [Compound 16] | 0.25 µg/mL (≈ 0.168 µM) | 0.5 µg/mL (≈ 0.336 µM) | 1 µg/mL (≈ 0.672 µM) | 1 µg/mL (≈ 0.672 µM) | > 128 µg/mL | > 128 µg/mL | 0.12 µg/mL (≈ 0.0807 µM) | 128 µg/mL (≈ 86.1 µM) | 1 µg/mL (≈ 0.672 µM) | > 300 mg/kg | 5 mg/kg | 7.8 |  |  |  |
| CN(C)CCCNC(=O)C1NC(=O)C2NC(=O)C(NC(=O)C3NC(=O)C4NC(=O)C(Cc5ccc(c(Cl)c5)Oc5cc3cc(c5O)Oc3ccc(cc3Cl)C2O)NC(=O)C(N)c2ccc(O)c(c2)Oc2cc(O)cc4c2)c2ccc(O)c(c2)-c2c(O)cc(O)cc21 (centres unmarked) [Compound 18] | 0.06 µg/mL (≈ 0.0468 µM) | 0.06 µg/mL (≈ 0.0468 µM) | 0.12 µg/mL (≈ 0.0935 µM) | 0.12 µg/mL (≈ 0.0935 µM) | 32 µg/mL (≈ 24.9 µM) | 16 µg/mL (≈ 12.5 µM) | 0.016 µg/mL (≈ 0.0125 µM) | 8 µg/mL (≈ 6.23 µM) | 0.12 µg/mL (≈ 0.0935 µM) | 140 mg/kg | 0.31 mg/kg | 8.9 |  |  |  |
| CCN(CC)CCCNC(=O)C1NC(=O)C2NC(=O)C(NC(=O)C3NC(=O)C4NC(=O)C(Cc5ccc(c(Cl)c5)Oc5cc3cc(c5O)Oc3ccc(cc3Cl)C2O)NC(=O)C(N)c2ccc(O)c(c2)Oc2cc(O)cc4c2)c2ccc(O)c(c2)-c2c(O)cc(O)cc21 (centres unmarked) [Compound 19] | 0.06 µg/mL (≈ 0.0458 µM) | 0.12 µg/mL (≈ 0.0915 µM) | 0.12 µg/mL (≈ 0.0915 µM) | 0.12 µg/mL (≈ 0.0915 µM) | 32 µg/mL (≈ 24.4 µM) | 32 µg/mL (≈ 24.4 µM) | 0.032 µg/mL (≈ 0.0244 µM) | 8 µg/mL (≈ 6.1 µM) | 0.12 µg/mL (≈ 0.0915 µM) | > 300 mg/kg | 0.18 mg/kg | 8.7 | 6.30 | 8.0 |  |
| CCCCN(CCCC)CCCNC(=O)C1NC(=O)C2NC(=O)C(NC(=O)C3NC(=O)C4NC(=O)C(Cc5ccc(c(Cl)c5)Oc5cc3cc(c5O)Oc3ccc(cc3Cl)C2O)NC(=O)C(N)c2ccc(O)c(c2)Oc2cc(O)cc4c2)c2ccc(O)c(c2)-c2c(O)cc(O)cc21 (centres unmarked) [Compound 20] | 0.06 µg/mL (≈ 0.0439 µM) | 0.6 µg/mL (≈ 0.439 µM) | 0.12 µg/mL (≈ 0.0878 µM) | 0.25 µg/mL (≈ 0.183 µM) | 64 µg/mL (≈ 46.8 µM) | 32 µg/mL (≈ 23.4 µM) | 0.063 µg/mL (≈ 0.0461 µM) | 8 µg/mL (≈ 5.85 µM) | 0.25 µg/mL (≈ 0.183 µM) | > 300 mg/kg | 0.72 mg/kg | 8.7 | 6.1 | 8.3 |  |
| NC1C(=O)NC2Cc3ccc(c(Cl)c3)Oc3cc4cc(c3O)Oc3ccc(cc3Cl)C(O)C3NC(=O)C(NC(=O)C4NC(=O)C(NC2=O)c2cc(O)cc(c2)Oc2cc1ccc2O)c1ccc(O)c(c1)-c1c(O)cc(O)cc1C(C(=O)NCCN1CCOCC1)NC3=O (centres unmarked) [Compound 21] | 0.12 µg/mL (≈ 0.0915 µM) | 0.06 µg/mL (≈ 0.0458 µM) | 0.12 µg/mL (≈ 0.0915 µM) | 0.12 µg/mL (≈ 0.0915 µM) | 64 µg/mL (≈ 48.8 µM) | 128 µg/mL (≈ 97.6 µM) | 0.016 µg/mL (≈ 0.0122 µM) | 16 µg/mL (≈ 12.2 µM) | 0.12 µg/mL (≈ 0.0915 µM) | > 300 mg/kg | 2.2 mg/kg | 7.9 | 5.01 | 6.8 |  |
| CN1CCN(C(=O)C2NC(=O)C3NC(=O)C(NC(=O)C4NC(=O)C5NC(=O)C(Cc6ccc(c(Cl)c6)Oc6cc4cc(c6O)Oc4ccc(cc4Cl)C3O)NC(=O)C(N)c3ccc(O)c(c3)Oc3cc(O)cc5c3)c3ccc(O)c(c3)-c3c(O)cc(O)cc32)CC1 (centres unmarked) [Compound 23] | 0.12 µg/mL (≈ 0.0937 µM) | 0.06 µg/mL (≈ 0.0468 µM) | 0.12 µg/mL (≈ 0.0937 µM) | 0.12 µg/mL (≈ 0.0937 µM) | 32 µg/mL (≈ 25 µM) | 64 µg/mL (≈ 50 µM) | 0.032 µg/mL (≈ 0.025 µM) | 16 µg/mL (≈ 12.5 µM) | 0.12 µg/mL (≈ 0.0937 µM) | > 300 mg/kg | 0.95 mg/kg | 8.0 | 5.6 | 6.8 |  |
| NC1C(=O)NC2Cc3ccc(c(Cl)c3)Oc3cc4cc(c3O)Oc3ccc(cc3Cl)C(O)C3NC(=O)C(NC(=O)C4NC(=O)C(NC2=O)c2cc(O)cc(c2)Oc2cc1ccc2O)c1ccc(O)c(c1)-c1c(O)cc(O)cc1C(C(=O)N1CCN(c2ccccn2)CC1)NC3=O (centres unmarked) [Compound 24] | 0.06 µg/mL (≈ 0.0446 µM) | 0.06 µg/mL (≈ 0.0446 µM) | 0.06 µg/mL (≈ 0.0446 µM) | 0.12 µg/mL (≈ 0.0893 µM) | > 128 µg/mL | > 128 µg/mL | 0.063 µg/mL (≈ 0.0469 µM) | 32 µg/mL (≈ 23.8 µM) | 0.12 µg/mL (≈ 0.0893 µM) | > 300 mg/kg | 0.72 mg/kg |  | 5.75 | 7.4 | 6.6 |
| NC1C(=O)NC2Cc3ccc(c(Cl)c3)Oc3cc4cc(c3O)Oc3ccc(cc3Cl)C(O)C3NC(=O)C(NC(=O)C4NC(=O)C(NC2=O)c2cc(O)cc(c2)Oc2cc1ccc2O)c1ccc(O)c(c1)-c1c(O)cc(O)cc1C(C(=O)N1CCOCC1)NC3=O (centres unmarked) [Compound 25] | 0.12 µg/mL (≈ 0.0946 µM) | 0.12 µg/mL (≈ 0.0946 µM) | 0.12 µg/mL (≈ 0.0946 µM) | 0.12 µg/mL (≈ 0.0946 µM) | 64 µg/mL (≈ 50.5 µM) | 64 µg/mL (≈ 50.5 µM) | 0.016 µg/mL (≈ 0.0126 µM) | 16 µg/mL (≈ 12.6 µM) | 0.12 µg/mL (≈ 0.0946 µM) | > 300 mg/kg | 1.02 mg/kg | 7.8 | 6.6 |  |  |
